Experimental data from patent US8313744B2, “Composition for the prevention and treatment of absence seizures comprising PKC agonist as an effective ingredient” (Korea Institute of Science and Technology, priority 2010, dated 2012).

Assays:
Assay type in all cases: in vivo
[1] = system: PLCβ4 knock-out mouse; experiment: SWD reduction by ethosuximide, EEG measurement; conditions: 200 mg/kg intraperitoneal, EEG recorded 1 hour, starting 30 minutes after injection, compared with NaCl control
[2] = system: PLCβ4 knock-out mouse; experiment: Change of SWD after injection of PKC agonist or calcium channel blocker into the thalamus relay nuclei, EEG measurement
[3] = system: PLCβ4 knock-out mouse; experiment: Sensitivity to absence seizure inducing agents (GABAB receptor agonists), EEG measurement; conditions: PLCβ4 knock-out mouse compared with normal mouse
[4] = 10 pmol injected into thalamus relay nuclei, compared with before / 0.9% NaCl

SMILES: CCC1(C)CC(=O)NC1=O (centres unmarked) [ethosuximide]
- SWD (spike-and-wave discharge) in EEG [1]: significantly reduced

SMILES: CCCCCCCCCC(=O)O[C@@H]1[C@@H](C)[C@@]2(O)[C@@H](C=C(CO)C[C@]3(O)C(=O)C(C)=C[C@@H]23)[C@@H]2C(C)(C)[C@]12OC(=O)CCCCCCCCC [PDD, phorbol 12,13-didecanoate]
- SWD (hourly number) in EEG [2, 4]: significantly reduced
- SWD (hourly number) in EEG ([2]; 10 pmol injected into thalamus relay nuclei, compared with before / 0.9% NaCl, listed as phorbol 12,13-didecanoate): reduced

SMILES: O=C1CCCO1 [γ-butyrolactone]
- absence seizure specific SWD ([3]; after absence seizure inducing drug): increased
- duration of paroxysmal SWD after drug administration ([3]; intraperitoneal, γ-butyrolactone 40 or 70 mg/kg, RS(+/−)-baclofen 20 mg/kg): continued even longer

SMILES: CCCCCCCCCCCCCC(=O)O[C@@H]1[C@@H](C)[C@@]2(O)[C@@H](C=C(CO)C[C@]3(O)C(=O)C(C)=C[C@@H]23)[C@@H]2C(C)(C)[C@]12OC(C)=O [PMA, phorbol 12-myristate 13-acetate]
- SWD (hourly number) in EEG [2, 4]: significantly reduced
- SWD (hourly number) in EEG ([2]; 10 pmol injected into thalamus relay nuclei, compared with before / 0.9% NaCl, listed as phorbol 12-myristate 13-acetate): reduced

SMILES: COCC(=O)O[C@]1(CCN(C)CCCc2nc3ccccc3[nH]2)CCc2cc(F)ccc2[C@@H]1C(C)C [mibefradil]
- SWD (hourly number) in EEG ([2]; 1 nmol injected into thalamus relay nuclei): significantly reduced
